Results taken from paper PMC7822892, “Avian antimicrobial peptides: in vitro and in ovo characterization and protection from early chick mortality caused by yolk sac infection” (Scientific Reports, 2021).
≈ marks a conversion by molar mass, not a printed value. Where a SMILES comes first, the peptide text is derived from it. Where no end group is shown, it is not given here.

Columns and labels:
[1] = system: all tested bacteria (E. coli, S. Enteritidis, S. Typhimurium, C. jejuni, C. perfringens); settings: 10^4–10^5 CFU/ml, 2 h
[2] = system: Clostridium perfringens JP26; settings: Clostridium perfringens JP26, 10^4–10^5 CFU/ml in PBS pH 7.4, 2 h at 37 °C, duplicate, plating
HD11 cells = assay: HD11 cytotoxicity, WST-1 assay; settings: 1.875 to 30 µg/ml, 24 h
[3] = system: human PBMCs, monocyte chemotactic protein 1 (MCP-1); parameters: method as in PMID 19524300; settings: in vitro stimulation of human PBMCs for 24 h; cited from earlier work
E. coli EC317 = settings: EC317, 2 h, 240 µg/ml
[4] = system: human peripheral blood mononuclear cells (PBMCs) and chicken erythrocytes; settings: cited from earlier work

Compound | Minimum inhibitory concentration (MIC) that kills 100% bacteria [2] | Effect on growth and metabolic activity of HD11 cells (in words) (HD11 cells) | further results
CC[C@H](C)[C@H](NC(=O)[C@H](CCCNC(=N)N)NC(=O)[C@H](CCCCN)NC(=O)[C@H](CS)NC(=O)[C@H](CS)NC(=O)[C@H](CC(C)C)NC(=O)[C@H](Cc1ccc(O)cc1)NC(=O)[C@H](Cc1ccccc1)NC(=O)[C@H](CCCNC(=N)N)NC(=O)[C@H](CO)NC(=O)[C@H](CS)NC(=O)[C@H](CCCCN)NC(=O)CNC(=O)[C@H](CO)NC(=O)[C@@H](NC(=O)[C@H](CC(C)C)NC(=O)[C@@H](NC(=O)[C@H](CC(C)C)NC(=O)[C@H](CO)NC(=O)[C@@H]1CCCN1C(=O)[C@H](CS)NC(=O)[C@H](CCCCN)NC(=O)[C@H](CC(C)C)NC(=O)[C@H](Cc1ccccc1)NC(=O)[C@H](C)NC(=O)[C@H](CS)NC(=O)[C@H](Cc1ccccc1)NC(=O)CNC(=O)[C@H](CO)NC(=O)[C@H](CCCCN)NC(=O)[C@H](CCCNC(=N)N)NC(=O)[C@H](Cc1ccccc1)NC(=O)[C@H](CS)NC(=O)[C@H](CC(=O)O)NC(=O)[C@H](CO)NC(=O)[C@H](CCCCN)NC(=O)[C@H](CCCNC(=N)N)NC(=O)CN)[C@@H](C)O)[C@@H](C)CC)C(=O)N[C@@H](Cc1c[nH]c2ccccc12)C(=O)O [ABD1] (H-GRKSDCFRKSGFCAFLKCPSLTLISGKCSRFYLCCKRIW-OH) | 0.83 µM (≈ 3.74 µg/mL) | not shown any significant effect | MIC over all tested bacteria ([1]; five strains): 0.83 to 1.66 µM
CC[C@H](C)[C@H](NC(=O)[C@H](CC(C)C)NC(=O)[C@H](Cc1c[nH]cn1)NC(=O)[C@H](CO)NC(=O)[C@@H]1CCCN1C(=O)[C@H](CS)NC(=O)CNC(=O)CNC(=O)[C@H](Cc1ccccc1)NC(=O)[C@H](Cc1c[nH]cn1)NC(=O)[C@H](CS)NC(=O)[C@H](CO)NC(=O)CNC(=O)CNC(=O)[C@H](CCCCN)NC(=O)[C@H](CS)NC(=O)[C@H](Cc1ccccc1)NC(=O)[C@H](CC(C)C)NC(=O)[C@H](CCSC)NC(=O)[C@H](CC(=O)O)NC(=O)[C@@H](N)CCCNC(=N)N)C(=O)N[C@@H](CCCCN)C(=O)N[C@H](C(=O)NCC(=O)N[C@@H](CO)C(=O)N[C@@H](CS)C(=O)N[C@@H](Cc1ccccc1)C(=O)NCC(=O)N[C@@H](Cc1ccccc1)C(=O)N[C@@H](CCCNC(=N)N)C(=O)N[C@@H](CO)C(=O)N[C@@H](CS)C(=O)N[C@@H](CS)C(=O)N[C@@H](CCCCN)C(=O)N[C@@H](Cc1c[nH]c2ccccc12)C(=O)N1CCC[C@H]1C(=O)N[C@@H](Cc1c[nH]c2ccccc12)C(=O)N[C@@H](CC(N)=O)C(=O)N[C@@H](C)C(=O)O)C(C)C [ABD2] (H-RDMLFCKGGSCHFGGCPSHLIKVGSCFGFRSCCKWPWNA-OH) | > 55.50 µM | not shown any significant effect | 
CATH-2(1–21): analog of CATH-2 (literature values) |  |  | MCP-1 production (in words) [3]: significant induction
CATH-2: mature, full-length chicken cathelicidin-2 (literature values) |  |  | MCP-1 production (in words) [3]: significant induction
DTLACRQSHGSCSFVACRAPSVDIGTCRGGKLKCCKWAPSS (cysteines drawn unpaired) [ABD9] | > 55.97 µM | not shown any significant effect | Growth inhibition (E. coli EC317): 40–90%
RFGRFLRKIRRFRPK [CATH-2(1–15)] | > 118.05 µM |  | MIC over tested Gram-negative bacteria ([1]; E. coli, S. Enteritidis, S. Typhimurium, C. jejuni): 0.92 to 7.38 µM; Toxicity (in words) [4]: non-toxic or very mildly toxic
SPIHACRYQRGVCIPGPCRWPYYRVGSCGSGLKSCCVRNRWA (cysteines drawn unpaired) [ABD6] | 50.59 µM | not shown any significant effect | 
